Data published in patent US8129137B2, “Two-photon probe for real-time monitoring of intracellular free zinc ions, method for preparing the probe and method for real-time monitoring of intracellular free zinc ions using the probe” (Korea University Industrial & Academic Collaboration …, priority 2008, dated 2012).

Experiments:
[1] = Fluorescence quantum yield (Coumarin 307 as reference); type: physicochemical; conditions: in methanol in the presence of Zn2+
Protocol: The absorption spectra of the two-photon probes were recorded on a Hewlett-Packard 8453 diode array spectrophotometer, and the fluorescence spectra of the two-photon probes were obtained with an Amico-Bowman series 2 luminescence spectrometer with a 1 cm standard quartz cell. The fluorescence quantum yields of the two-photon probes were determined by using Coumarin 307 as the reference by the literature method (J. N. Demas, G. A. Crosby, J. Phys. Chem. 1971, 75, 991-1024.). FIGS. 2a and 2b are one-photon absorption and emission spectra of the two-photon probe AZn1, respectively, and FIGS. 2c and 2d are one-photon absorption and emission spectra of the two-photon probe AZn2, respectively.

[2] = Two-photon cross section and action spectra; type: physicochemical; conditions: in methanol in the presence of Zn2+; 780 nm
Protocol: The two-photon cross section (δ) was determined by using femto second (fs) fluorescence measurement technique.
The intensities of the two-photon induced fluorescence spectra of the reference and the sample probe were measured, and the two-photon cross section of the sample probe was calculated according to Equation 3:
[formula] wherein the subscripts s and r represent sample and reference molecules, respectively, δ represents the two-photon cross section, S represents the strength of signals collected by a CCD detector, φ represents the fluorescence quantum efficiency, φrepresents the total fluorescence collection efficiency of an experimental system, c represents the number density of the molecules within each of the solutions, and δr represents the two-photon cross section of reference molecules.
Referring to FIG. 9, the two-photon action spectra of the Zn^2+ complexes with AZn1 and AZn2 in the buffer solutions indicated a φδ value of ˜90 GM at 780 nm, 4˜24-fold larger than those of TSQ and FluZin-3.

SMILES: COc1cc(NS(=O)(=O)c2ccc(C)cc2)c2ncccc2c1 [TSQ, reference compound]
- fluorescence quantum yield φ [1]: 0.43
- δ, peak two-photon cross section [2]: 10 GM
- φδ, two-photon action cross section [2]: 4 GM
